The values below are quoted from earlier work in publication PMC6985722 (Antimicrobial Agents and Chemotherapy, 2020).

One series concerns RSV. Details: method as in ref 21 = [21]; 21. Hanfelt-Goade D , Maimon N , Nimer A , Riviere F , Catherinot E , Ison M , Jeong SH , Walsh E , Gafter-Gvili A , Nama SR , Napora P , Chowers M , Bergeron A , Zeltser D , Moudgil H , Limaye AP , C. As to conditions: hospitalized RSV-infected adults treated relatively late; cited from earlier work.
For series [1] the following is noted: cited from earlier work.

Turning to `Cc1cn2nc([C@@H]3CCCCN3C(=O)c3cc(Cl)ccc3NS(C)(=O)=O)cc2nc1N1CC[C@H](N)C1` [GS-5806], the “Viral load and clinical outcomes” value in the series on RSV was “failed to significantly reduce the viral load or improve clinical outcomes”. Regarding `CC(C)C(=O)OC[C@@]1(CCl)O[C@@H](n2ccc(N)nc2=O)[C@H](F)[C@@H]1OC(=O)C(C)C` [ALS-008176], the Terminal half-life in series [1] is recorded as 63 h.
